Laboratory results as given in patent US8318781B2, “G-protein-conjugated receptor agonist” (Japan Science and Technology Agency, priority 2007, dated 2012).
Where two headings read alike, the source gives them in different places.

What was measured:
Type in all cases: cell-based
human GPR120 (hGPR120) [1] = biological target: T1, human GPR120 (hGPR120) (Homo sapiens, UniProt Q5NUL3); experiment: ERK assay, screening for GPR120 ligands in cell line TXGPR120;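 as to ERK/GPR120 10 μM: signals normalized between DMSO and PMA controls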; conditions: TXGPR120 cells; for ERK activation for GPR120 (in words): FIGS. 5-8; for ERK/GPR120 10 μM: ligand 10 μM; for ERK/GPR120 10 μM / ERK/GPR120 100 μM: class relative to LA; for ERK/GPR120 100 μM: ligand 100 μM
T1 construct: expressed in transfected cells; doxycycline-inducible expression vector
T1 sequence (Q5NUL3 1-361): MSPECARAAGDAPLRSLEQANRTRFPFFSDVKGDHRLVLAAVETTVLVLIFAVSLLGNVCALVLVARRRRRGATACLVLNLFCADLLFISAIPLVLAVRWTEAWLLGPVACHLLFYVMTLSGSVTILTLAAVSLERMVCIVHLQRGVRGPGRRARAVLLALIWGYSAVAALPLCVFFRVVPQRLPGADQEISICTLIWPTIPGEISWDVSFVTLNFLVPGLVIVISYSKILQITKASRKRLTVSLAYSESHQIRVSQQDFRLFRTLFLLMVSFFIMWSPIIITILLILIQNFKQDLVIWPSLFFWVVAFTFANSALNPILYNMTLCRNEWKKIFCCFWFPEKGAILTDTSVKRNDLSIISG
Protocol: (§1) This Test 1 was carried out by using the following materials and methods.
(§2) (1) In this test, the cell lines TXGPR40 and TXGPR120 were plated in 35-mm dishes in 5×10^5 cells/per dish.
(§3) Each ligand was dissolved in DMSO, diluted tenfold with the medium to make the total amount of 100 μl. DMSO was used as the negative control, and PMA (phorbol-12-myristate-13-acetate) was used as the positive control.
(§4) (3) The medium was removed from the dish of the cell to reduce the total amount of liquid to 0.9 ml.
(§5) (4) The ligand solution was added dropwise to the cell solution, and dispersed by gently shaking the dish, and allowed to react at room temperature.
(§6) (5) After 5 minutes of reaction, the medium was discarded, and the remaining medium on the dish was removed on ice using an aspirator.
(§7) (6) 150 μl of Lysis buffer (50 mM HEPES (pH 7.0), 150 mM NaCl, 10% glycerol, 1% NonidetP-40, 2 mM MgCl2, 1 mM EDTA, 100 mM NaF, 10 mM sodium phosphate, 1 mM Na3VO4, 20 mM β-glycerophosphate, and Proteinase inhibitor) were added, then the cells were collected using a cell scraper.
(§8) (1) The crude enzyme solution mixed with SDS Sample Buffer was subjected to ultrasonication with a sonifier, then incubated at 90° C. for five minutes.
(§9) (2) The mixture was vortexed and centrifuged at 15,000 rpm for five minutes at 4° C.
(§10) (3) The supernatant of the centrifuged sample was applied to two 7.5% acrylamide gel slabs placed in an electrophoresis tank filled with 1×SDS-PAGE Running Buffer (25 mM Tris, 0.2 M Glycin, and 1% SDS). Electrophoresis was carried out under a constant current of 40 mA for about 80 to 90 minutes.
(§11) (1) A PVDF membrane cut in the same size as the gel slab was immersed in methanol for about 15 seconds and then shaken in Transfer Buffer C solution (25 mM Tris, 0.02% SDS, 2% methanol and 40 mM 6-aminohexanoic acid) at room temperature to swell for 15 minutes. Filter paper for blotting was cut into a 10-cm square.
(§12) (2) On the blotting apparatus were placed sequentially two pieces of filter paper immersed in A solution (0.3 M Tris, 0.02% SDS and 2% methanol), two pieces of filter paper immersed in B solution (25 mM Tris, 0.02% SDS and 2% methanol), and the membrane thereon. The gel slab after electrophoresis, and finally two pieces of filter paper immersed in C solution was placed thereon, and the apparatus was closed.
(§13) (3) The protein was transferred to the membrane at 15 V for 30 minutes.
(§14) (1) The following procedure was all carried out at room temperature. After the protein transfer, the membrane was placed into a vial containing 1×TTBS (0.2 M Tris, 1.5 M NaCl, 0.2% Tween 20) and washed for 15 minutes.
(§15) (2) TTBS was discarded, and about 10 ml of Block Ace was added and blocked on a shaker for one hour.
(§16) (1) The primary antibodies (p44/42 MAP Kinase Antibody and Phospho-p44/42 MAP Kinase Antibody) were each diluted 1000-fold with TTBS.
(§17) (2) After blocking, the Block Ace solution was removed, the solution of the primary antibody was added and allowed to react on the shaker for two hours.
(§18) (1) The secondary antibody (Anti-rabbit Ig, Horseradish Peroxidase linked F(ab′)2 fragments) was diluted 5000-fold with TTBS.
(§19) (2) The primary antibody solution was removed and the membrane was washed three times on the shaker in TTBS for five to ten minutes each.
(§20) (3) TTBS was removed and the solution of secondary antibody was added and left for 1 hour on the shaker.
(§21) (1) 2 ml each of Detection Reagent 1 and Detection Reagent 2 from ECL kit were mixed together on ice.
(§22) (2) The solution of secondary antibody was removed from the membrane reacted with the secondary antibody and then washed three times on the shaker in TTBS for five minutes each.
(§23) (3) The liquid was thoroughly removed from the membrane, which was then placed in a plastic bag, and 2 ml of the Detection Reagent mixture was added per each membrane.
(§24) (4) The membrane was kept in contact with a film in the cassette for one to five minutes, and the film was developed using an automatic developing machine.

human GPR120 (hGPR120) [2] = biological target: T1, human GPR120 (hGPR120); experiment: Determination of intracellular Ca2+ concentration (FLIPR), cell line GPR120/Flp-in; conditions: for [Ca^2+]/GPR120/Flp-In 10 μM (ratio vs. LA): relative fluorescence intensity vs LA at 10 μM
Protocol: (§25) (1) In this test, The cell lines TXGPR40, TXGPR120 and GPR120/Flp-in were plated onto a collagen-coated black 96-well plate in 2×10^5 cells/well. The 96-well plates containing the cells were centrifuged and treated with Doxycycline (final concentration 10 μg/mL), incubated in a CO2 incubator for 21 hours, then used for assay.
(§26) (2) The ligand used in this test includes NCP04, NCP14, NCG20, NCG21, NCG22, NCG23, NCP02, NCP03, NCP05, NCP06, NCG14, NCG17, NCG19, NCG28, NCG29, NCG30, NCG31, NCG34, NCG35, NCG37, NCG38, NCG44, NCG45, NCG46, and NCG54. Each ligand was dissolved in DMSO and adjusted to the concentration of 10 mM, then diluted with Hanks' Balanced Salt Solution (pH 7.4) containing 20 mM HEPES (referred to as FLIPR buffer hereinafter) to the final concentration of 1 to 100 μM. 1% DMSO was used as the negative control, and LA was used as the positive control.
(§27) The ligands and controls were placed in different 96-well plates from the plates for the cells.
(§28) (3) The 96-well plate containing the cells was removed from the CO2 incubator. A fluorescent dye prepared in a twofold higher concentration (Ca Assay Kit Component A diluted with FLIPR Buffer) was added in 50 μL/well, then allowed to stand in the dark at room temperature for one hour.
(§29) (4) After one hour, the 96-well plate containing the cells and the 96-well plate in which ligands and controls were prepared were set on FLIPR (Fluorometric Imaging Plate Reader) for determination.
(§30) (5) Fluorometry using FLIPR was carried out at a laser output of 1.0 W for five minutes. […] after the start of the determination, the ligand (25 μL) was added dropwise to the cell plate at a rate of 50 μL/sec. The intensity of fluorescence was automatically digitized by the application program installed in the FLIPR from the image taken by the CCD camera (with exposure time of 0.40 sec). The interval of data sampling was one second for the initial one minute after the start of operation, and six seconds for the subsequent four minutes.
(§31) (6) The maximum fluorescence intensity was obtained from the data showing the change in the fluorescence intensity over time observed in each well. The maximum fluorescence intensity was plotted against ligand concentration, and pEC50 was calculated. The ratio of the fluorescence intensity for each ligand to LA at 10 μM was calculated as the relative intensity of each ligand.

human GPR40 (hGPR40) [3] = biological target: T2, human GPR40 (hGPR40) (Homo sapiens, UniProt O14842); experiment: Determination of intracellular Ca2+ concentration (FLIPR), cell line TXGPR40; conditions: for agonistic activity for GPR40 (in words): cells in which GPR40 has been transgenically expressed; for [Ca^2+]/GPR40 10 μM (ratio vs. LA): relative fluorescence intensity vs LA at 10 μM
T2 construct: expressed in transfected cells; doxycycline-inducible expression vector
T2 sequence (O14842 whole entry): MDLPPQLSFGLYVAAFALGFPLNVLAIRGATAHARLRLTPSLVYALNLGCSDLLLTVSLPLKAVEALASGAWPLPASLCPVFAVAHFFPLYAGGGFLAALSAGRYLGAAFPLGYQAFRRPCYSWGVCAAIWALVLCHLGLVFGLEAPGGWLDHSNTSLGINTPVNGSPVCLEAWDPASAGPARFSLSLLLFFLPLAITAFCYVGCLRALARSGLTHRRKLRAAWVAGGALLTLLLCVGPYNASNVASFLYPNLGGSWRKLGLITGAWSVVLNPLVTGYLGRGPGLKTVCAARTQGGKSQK
Protocol: as §25, §26, §27, §28, §29, §30, §31

human GPR120 (hGPR120) [4] = biological target: T1, human GPR120 (hGPR120); experiment: Determination of intracellular Ca2+ concentration (FLIPR), cell line TXGPR120; conditions: for agonistic activity for hGPR120 (in words): cells in which GPR120 has been transgenically expressed; for [Ca^2+]/GPR120 10 μM (ratio vs. LA): relative fluorescence intensity vs LA at 10 μM
Protocol: as §25, §26, §27, §28, §29, §30, §31

human GPR40 (hGPR40) [5] = biological target: T2, human GPR40 (hGPR40); experiment: ERK assay, screening for GPR40 ligands in cell line TXGPR40; conditions: TXGPR40 cells; for ERK activation for GPR40 (in words): FIGS. 1-4; for ERK/GPR40 10 μM: ligand 10 μM; for ERK/GPR40 10 μM / ERK/GPR40 100 μM: class relative to LA; for ERK/GPR40 100 μM: ligand 100 μM
Protocol: as §1, §2, §3, §4, §5, §6, §7, §8, §9, §10, §11, §12, §13, §14, §15, §16, §17, §18, §19, §20, §21, §22, §23, §24

[6] = GPR120/Flp-in cells, maximum fluorescence intensity vs ligand concentration, read-out: [Ca^2+]/GPR120/Flp-In pEC50 (converted)
[7] = TXGPR40 cells, maximum fluorescence intensity vs ligand concentration, read-out: [Ca^2+]/GPR40 pEC50 (converted)

| ERK activation for GPR120 (in words) (human GPR120 (hGPR120) [1]) | ERK/GPR120 10 μM (human GPR120 (hGPR120) [1]) | ERK/GPR120 100 μM (human GPR120 (hGPR120) [1]) | EC50 (human GPR120 (hGPR120) [2]) [µM] | [Ca^2+]/GPR120/Flp-In 10 μM (ratio vs. LA) (human GPR120 (hGPR120) [2]; GPR120/Flp-in cells) | EC50 (human GPR40 (hGPR40) [3]) [µM] | agonistic activity for GPR40 (in words) (human GPR40 (hGPR40) [3]) | [Ca^2+]/GPR40 10 μM (ratio vs. LA) (human GPR40 (hGPR40) [3]; TXGPR40 cells) | EC50 (human GPR120 (hGPR120) [4]) [µM] | agonistic activity for hGPR120 (in words) (human GPR120 (hGPR120) [4]) | [Ca^2+]/GPR120 10 μM (ratio vs. LA) (human GPR120 (hGPR120) [4]; TXGPR120 cells) | ERK activation for GPR40 (in words) (human GPR40 (hGPR40) [5]) | ERK/GPR40 10 μM (human GPR40 (hGPR40) [5]) | ERK/GPR40 100 μM (human GPR40 (hGPR40) [5]) | EC50 (human GPR120 (hGPR120) [2]; [6]) [µM] | EC50 (human GPR120 (hGPR120) [4]; TXGPR120 cells, maximum fluorescence intensity vs ligand concentration, read-out: [Ca^2+]/GPR120 pEC50 (converted)) [µM] | EC50 (human GPR40 (hGPR40) [3]; [7]) [µM] | SMILES |
| --- | --- | --- | --- | --- | --- | --- | --- | --- | --- | --- | --- | --- | --- | --- | --- | --- | --- |
| strongly activate ERK | +++ (+++ denotes a higher value than LA) | +++ (+++ denotes a higher value than LA) | 4.27 | 0.88 | 20.9 | showed a specific reactivity | 0.21 | 12 | exhibit a similar effect | 0.85 | strongly activated ERK | ++ (++ denotes 50 to 100% of LA) | +++ (+++ denotes a higher value than LA) |  |  |  | O=C(O)CCCc1ccc(OCCN(c2ccccc2)c2ccccc2)cc1 [NCG29] |
| strongly activate ERK | +++ (+++ denotes a higher value than LA) | +++ (+++ denotes a higher value than LA) | 4.57 | 1.00 | 7.76 | showed a specific reactivity | 0.68 | 16.2 | exhibit a similar effect | 0.61 | strongly activated ERK | +++ (+++ denotes a higher value than LA) | +++ (+++ denotes a higher value than LA) |  |  |  | O=C(O)CCCc1ccc(OCCN(c2ccccc2)c2cc(Cl)ccn2)cc1 [NCG35] |
|  | + (+ denotes 0 to 100% of LA) | ++ (++ denotes 50 to 100% of LA) |  | 0.85 |  |  | 0.01 |  | exhibit a similar effect | 0.49 |  |  | + (+ denotes 0 to 100% of LA) | 3.55 | 22.9 |  | O=C(O)CCCc1ccc(OCCN(c2ccccc2)c2ncccn2)cc1 [NCG44] |
|  | + (+ denotes 0 to 100% of LA) | + (+ denotes 0 to 100% of LA) |  | 0.45 |  | showed a specific reactivity | 1.47 |  | exhibit a similar effect | 0.00 |  | + (+ denotes 0 to 100% of LA) | +++ (+++ denotes a higher value than LA) | 15.5 |  | 3.39 | CCN(CCOc1ccc(CCC(=O)O)cc1)c1ccccn1 [NCP02] |
|  | + (+ denotes 0 to 100% of LA) | +++ (+++ denotes a higher value than LA) |  | 0.45 |  | showed a specific reactivity | 1.22 |  | exhibit a similar effect | 0.00 |  | +++ (+++ denotes a higher value than LA) | +++ (+++ denotes a higher value than LA) | 11.5 |  | 5.62 | CCCCCN(CCOc1ccc(CCC(=O)O)cc1)c1ccccn1 [NCP05] |
